From patent publication US20260137697A1, “THIAZOLO[5,4-D]PYRIMIDINE COMPOUNDS, COMPOSITIONS COMPRISING THEM AND USES THEREOF” (University de Montreal, priority 2022, published 2026)

Legend:
CRAF = molecular target: T1, CRAF (Homo sapiens, UniProt P04049); experiment: CRAF kinase activity assay (ADP-Glo); type: biochemical; conditions: Table 3; 10 μM ATP, kinase-dead MEK1 substrate
T1 construct: fused on or other part: GST tag (N-terminal according to the vendor's product)
Description: (§1) Compound preparation: solid samples of each substance in 1dram vials were suspended in DMSO (Fisher Scientific) at a stock concentration of 20 mM. Stocks were kept at −20° C. and protected from light. If solubility of the compound at 20 mM appeared to be an issue, the initial concentration of the DMSO stock was changed to 10 mM or 5 mM.
(§2) In vitro enzymatic reactions were used for evaluating compounds intrinsic activity against BRAF, CRAF and ARAF. For BRAF and CRAF, 0.375 nM of purified GST-tagged kinases (cat. No. B4062-10UG and cat. No. R1656-10UG respectively from Millipore Sigma) were incubated with 75 nM of kinase-dead MEK1 substrate (cat. No. 40075; BPS Bioscience) in the presence of 10 μM of Ultrapure ATP (cat. No. V9102; Promega; part V915A) with and without the test compound in a buffer containing 50 mM HEPES pH 7.5, 10 mM MgCl2, 1 mM EDTA, 0.01% Brij-35 and 2 mM DTT. Separate reactions were performed with the MEK1 substrate and ATP as a blank control. ARAF kinase reactions were rigorously the same with the exception that kinase concentration was raised to 3.75 nM (cat. No. 1768-0000-1; Reaction Biology).
(§3) For compound treatment, 5 μL/well of test substance solution are placed in a 384-well proxyplate (Perkin Elmer) and mixed with 2× concentrated kinase reactions. The dilution series is selected so that nine concentrations cover a range from 100 nM to 0.01 nM. […] The final concentration of DMSO in the assay is set at 0.05%.
(§4) BRAF and CRAF kinase reactions were carried out for a total of 2 hours at 30° C. and then stopped by 1/2 dilution in ADP-Glo Reagent (cat. No. V9102; Promega; part V912C). Reactions were then incubated for 1 h at room temperature before addition of one volume of Kinase Detection Reagent (cat. No. V9102; Promega; part V917A). Plates were then equilibrated at room temperature for 30 minutes before detection of luminescence on a Synergy Neo2 plate reader (Biotek). The effect of each compound dilution on BRAF and CRAF kinase activity was expressed as % inhibition and calculated as follows. First, the internal 100% inhibition control (average of luminescence in kinase reactions comprising kinase dead MEK1 substrate alone) was subtracted from each data point. The average of DMSO (vehicle) controls (set as 0% inhibition) was established and used to calculate % inhibition:
(§5) IC50 values were obtained by plotting the kinase inhibition values and fitting the dose-activity curves using a log(agonist) versus response—variable slope (four parameters) function using either GraphPadPrism (V7.0) or Dotmatics Screening Ultra platform. Standards included in the ARAF kinase assay were Belvarafenib (MedChem Express cat. No. HY-109080; CAS No. 1446113-23-0), LXH254 (MedChem Express cat. No. HY-112089; CAS No. 1800398-38-2) and BGB283 (cat. No. HY-18957; CAS No. 1446090-79-4).

BRAF = molecular target: T2, BRAF (Homo sapiens, UniProt P15056); experiment: BRAF kinase activity assay (ADP-Glo); type: biochemical; conditions: Table 3; 10 μM ATP, kinase-dead MEK1 substrate
T2 construct: GST; purchased Millipore Sigma B4062-10UG
Description: as §1, §2, §3, §4, §5

pERK, HCT116 cells = experiment: Phospho-ERK inhibition, AlphaLISA p-ERK 1/2, HCT-116; type: cell-based, human; conditions: Table 3; for IC50: HCT116 cells (KRAS G13D), 1 h treatment; for HCT116 pERK (Ymin %): lowest % inhibition value of the pERK IC50 curve, above −20% = no paradoxical induction
Description: All cancer cell lines (A375, A101D, A2058, RKO, HT29 SK-MEL 30, IPC298, HepG2, HCT-116, Lovo, SW620, SW480, NCI-H358, NCI-H2122, Calu-6, NCIH2087, NCIH1755, NCIH1666 and Mewo) were obtained from ATCC and cultured in RPM1-1640 medium (Gibco) supplemented with 5% heat inactivated fetal bovine serum (FBS, Wisent) at 37° C. under 5% CO2. Cells were maintained in T175 flasks (Greiner). They were passaged by removing the culture medium, washing once in 10 mL of room temperature Phosphate Buffered Saline (PBS; Wisent) and incubating at 37° C. with 2 mL of 0.05% Trypsin (Thermo-Fisher). Trypsin was then inactivated by adding complete growth medium and the cells were then replated in a T175 culture dish at the appropriate dilution. All cell lines were routinely tested for mycoplasma contamination. Tissue type and mutational status of each cell line can be found in Table B.
(c) Measurement of Phospho-ERK Inhibition in Cultivated Human Cancer Cell Lines by the AlphaLISA® SureFire® Ultra™ p-ERK 1/2 (Thr2O2/Tyr204)
AlphaLISA® SureFire® Ultra™ p-ERK 1/2 (Thr202/Tyr204) analysis was conducted on cells plated in 100 μL of complete RPMI-1640 growth medium in 96-well flat-bottomed transparent dishes (Costar) at a density indicated in Table C. Cells were maintained overnight at 37° C. under 5% CO2 before treatment with compounds' dilution series for one hour. The cell density in cells/cm^2 corresponds to cell number divided by the area of one well of a 96-well plate (0.143 cm^2).
In a dilution series 100 μL/well of test substance dilution prepared in complete RPMI-1640 growth media was added to the cells. The dilution series is selected so that ten concentrations cover a range from 10 μM to 0.33 nM. If necessary, the initial concentration of 10 μM is increased to 100 μM or lowered to 1 μM (as in the case of A375 and H1666 cells, which are generally more sensitive to the compounds) and further dilution is carried out accordingly. The final concentration of DMSO in the assay is set at 0.5%.
After treatment, media was removed, and cells were lysed in 50 μL of 1× AlphaScreen Ultra Lysis Buffer (Perkin Elmer). The AlphaLISA® SureFire® Ultra™ p-ERK 1/2 (Thr202/Tyr204) (PerkinElmer) reactions were performed with 5 μL of cell lysate according to the manufacturer's specifications in 384-well proxyplates (Perkin Elmer) followed by overnight incubation of the reactions at room temperature in a humidified chamber. After completion of the reactions, the signals were recorded on an EnVision plate reader (Perkin Elmer) using built in AlphaLISA® settings.
The effect of each compound dilution on the pERK signal was expressed in % inhibition and calculated as follows. An internal 100% inhibition control (1 μM trametinib, cat. No. HY-10999; MedChem Express; CAS No. 871700-17-3) was included in each plate and used as a measure of pERK background. First, the value obtained for trametinib was subtracted from each data point. The average of DMSO (vehicle) controls (set as 0% inhibition) was established and used to calculate % inhibition:
The ability of each compound to inhibit pERK signal was expressed as an IC50 value obtained by plotting the inhibition values for each data point of a dilution series and fitting the obtained curves using a log(agonist) versus response—variable slope (four parameters) function using GraphPadPrism (V7.0) or Dotmatics Screening Ultra platform.
When present, paradoxical pERK induction is inferred from the negative % inhibition values observed in the pERK IC50 curves of a compound.

T2 sequence (P15056 whole entry): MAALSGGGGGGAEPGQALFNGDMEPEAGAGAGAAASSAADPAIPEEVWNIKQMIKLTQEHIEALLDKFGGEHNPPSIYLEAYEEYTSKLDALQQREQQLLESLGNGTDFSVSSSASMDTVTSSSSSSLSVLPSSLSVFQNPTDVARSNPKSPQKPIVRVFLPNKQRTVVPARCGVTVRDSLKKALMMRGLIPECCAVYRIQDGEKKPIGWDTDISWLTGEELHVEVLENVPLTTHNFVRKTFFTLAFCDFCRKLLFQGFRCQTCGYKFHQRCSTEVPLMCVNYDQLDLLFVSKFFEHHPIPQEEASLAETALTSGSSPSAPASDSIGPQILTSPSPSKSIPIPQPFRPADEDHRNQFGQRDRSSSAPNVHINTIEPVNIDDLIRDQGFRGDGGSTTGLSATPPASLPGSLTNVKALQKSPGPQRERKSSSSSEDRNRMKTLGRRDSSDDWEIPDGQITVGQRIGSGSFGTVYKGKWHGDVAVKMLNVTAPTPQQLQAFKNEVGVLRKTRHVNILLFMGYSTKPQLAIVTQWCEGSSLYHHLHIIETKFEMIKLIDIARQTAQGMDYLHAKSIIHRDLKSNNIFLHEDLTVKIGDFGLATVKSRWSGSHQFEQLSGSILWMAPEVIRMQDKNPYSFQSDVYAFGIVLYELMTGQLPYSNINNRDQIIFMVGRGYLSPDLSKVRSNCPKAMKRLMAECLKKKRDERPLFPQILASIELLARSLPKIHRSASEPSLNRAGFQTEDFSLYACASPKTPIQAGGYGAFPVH
T1 sequence (P04049 whole entry Y340E/Y341E, form open, the tested form may be a part): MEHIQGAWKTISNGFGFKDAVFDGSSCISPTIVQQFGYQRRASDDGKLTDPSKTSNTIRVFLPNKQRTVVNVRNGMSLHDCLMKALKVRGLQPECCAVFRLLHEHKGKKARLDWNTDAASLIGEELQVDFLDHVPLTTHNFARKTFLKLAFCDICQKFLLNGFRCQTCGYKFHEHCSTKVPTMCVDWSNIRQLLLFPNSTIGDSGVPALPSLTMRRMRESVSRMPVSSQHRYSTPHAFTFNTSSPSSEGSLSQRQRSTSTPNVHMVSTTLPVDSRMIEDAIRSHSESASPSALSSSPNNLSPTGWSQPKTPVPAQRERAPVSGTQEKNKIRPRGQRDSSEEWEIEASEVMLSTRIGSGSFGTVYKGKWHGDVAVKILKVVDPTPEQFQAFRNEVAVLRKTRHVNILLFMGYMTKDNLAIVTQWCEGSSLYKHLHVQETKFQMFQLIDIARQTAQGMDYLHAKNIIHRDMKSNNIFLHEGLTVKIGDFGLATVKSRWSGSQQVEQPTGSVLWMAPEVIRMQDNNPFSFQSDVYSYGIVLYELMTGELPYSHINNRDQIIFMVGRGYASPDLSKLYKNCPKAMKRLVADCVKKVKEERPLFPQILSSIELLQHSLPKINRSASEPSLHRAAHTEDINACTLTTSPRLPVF

Row | Structure (SMILES) | IC50 (CRAF) [nM] | IC50 (BRAF) [nM] | IC50 (pERK, HCT116 cells) [nM] | HCT116 pERK (Ymin %) (pERK, HCT116 cells) [%] | IC50 (pERK, HCT116 cells; Homo sapiens, HCT-116) [nM]
1 | CN(Cc1ccncc1)C(=O)c1cn(-c2nc3c(Nc4c(F)ccc(NS(=O)(=O)c5cccc(Cl)c5Cl)c4F)ncnc3s2)c2ccccc12 [Example 45] | < 10 | < 1 | < 500 | −4 | –
2 | CN(Cc1cccnc1)C(=O)c1cn(-c2nc3c(Nc4c(F)ccc(NS(=O)(=O)c5cccc(Cl)c5Cl)c4F)ncnc3s2)c2ccccc12 [Example 46] | < 10 | 1 to 10 | < 500 | 1 | –
3 | O=S(=O)(Nc1ccc(F)c(Nc2ncnc3sc(-n4cnc5cc(Cl)c(Cl)cc54)nc23)c1F)c1cccc(Cl)c1Cl [Example 47] | 10 to 50 | 1 to 10 | – | – | 1000 to 10000
4 | COCCN(C)S(=O)(=O)c1cn(-c2nc3c(Nc4c(F)ccc(NS(=O)(=O)c5cccc(Cl)c5Cl)c4F)ncnc3s2)c2ccccc12 [Example 48] | 10 to 50 | 1 to 10 | 500 to 1000 | 0 | –
5 | O=S(=O)(Nc1ccc(F)c(Nc2ncnc3sc(-n4cnc5c(F)c(F)ccc54)nc23)c1F)c1cccc(Cl)c1Cl [Example 49] | < 10 | 1 to 10 | – | – | 500 to 1000
6 | CN(CCc1ccccn1)C(=O)c1cn(-c2nc3c(Nc4c(F)ccc(NS(=O)(=O)c5cccc(Cl)c5Cl)c4F)ncnc3s2)c2ccccc12 [Example 50] | < 10 | < 1 | < 500 | 1 | –
7 | O=C(c1cn(-c2nc3c(Nc4c(F)ccc(NS(=O)(=O)c5cccc(Cl)c5Cl)c4F)ncnc3s2)c2ccccc12)N1C2CCC1COC2 [Example 51] | < 10 | < 1 | < 500 | −1 | –
8 | O=C(c1cn(-c2nc3c(Nc4c(F)ccc(NS(=O)(=O)c5cccc(Cl)c5Cl)c4F)ncnc3s2)c2ccccc12)N1CCC(CO)C1 (stereo not drawn) [Example 52] | < 10 | < 1 | 500 to 1000 | −9 | –
9 | O=C(c1cn(-c2nc3c(Nc4c(F)ccc(NS(=O)(=O)c5cccc(Cl)c5Cl)c4F)ncnc3s2)c2ccccc12)N1CCC(O)C1 (stereo not drawn) [Example 53] | < 10 | < 1 | 500 to 1000 | −9 | –
10 | N#CC1CN(C(=O)c2cn(-c3nc4c(Nc5c(F)ccc(NS(=O)(=O)c6cccc(Cl)c6Cl)c5F)ncnc4s3)c3ccccc23)C1 [Example 54] | < 10 | 1 to 10 | < 500 | −6 | –
11 | O=C(c1cn(-c2nc3c(Nc4c(F)ccc(NS(=O)(=O)c5cccc(Cl)c5Cl)c4F)ncnc3s2)c2ccccc12)N1CCCC(O)C1 (stereo not drawn) [Example 55] | < 10 | < 1 | 500 to 1000 | −3 | –
12 | CN1CC2CCC(C1)N2C(=O)c1cn(-c2nc3c(Nc4c(F)ccc(NS(=O)(=O)c5cccc(Cl)c5Cl)c4F)ncnc3s2)c2ccccc12 [Example 56] | < 10 | < 1 | < 500 | 0 | –
13 | O=C(c1cn(-c2nc3c(Nc4c(F)ccc(NS(=O)(=O)c5cccc(Cl)c5Cl)c4F)ncnc3s2)c2ccccc12)N1CC(C(F)F)C1 [Example 57] | 10 to 50 | 1 to 10 | < 500 | 4 | –
14 | O=C(c1cn(-c2nc3c(Nc4c(F)ccc(NS(=O)(=O)c5cccc(Cl)c5Cl)c4F)ncnc3s2)c2ccccc12)N1CC2(CCOCC2)C1 [Example 58] | < 10 | 1 to 10 | < 500 | −12 | –
15 | O=C(c1cn(-c2nc3c(Nc4c(F)ccc(NS(=O)(=O)c5cccc(Cl)c5Cl)c4F)ncnc3s2)c2ccccc12)N1CC(O)C1 [Example 59] | < 10 | < 1 | 500 to 1000 | 4 | –
16 | N#CCC1CN(C(=O)c2cn(-c3nc4c(Nc5c(F)ccc(NS(=O)(=O)c6cccc(Cl)c6Cl)c5F)ncnc4s3)c3ccccc23)C1 [Example 60] | < 10 | < 1 | < 500 | −2 | –
17 | NS(=O)(=O)c1cn(-c2nc3c(Nc4c(F)ccc(NS(=O)(=O)c5cccc(Cl)c5Cl)c4F)ncnc3s2)c2ccccc12 [Example 61] | < 10 | 1 to 10 | < 500 | −13 | –
18 | COCCNS(=O)(=O)c1cn(-c2nc3c(Nc4c(F)ccc(NS(=O)(=O)c5cccc(Cl)c5Cl)c4F)ncnc3s2)c2ccccc12 [Example 62] | < 10 | 1 to 10 | < 500 | 2 | –
19 | CCS(=O)(=O)c1cn(-c2nc3c(Nc4c(F)ccc(NS(=O)(=O)c5cccc(Cl)c5Cl)c4F)ncnc3s2)c2ccccc12 [Example 63] | 10 to 50 | 1 to 10 | < 500 | −5 | –
20 | O=S(=O)(Nc1ccc(F)c(Nc2ncnc3sc(-n4cc(S(=O)(=O)C5CCCC5)c5ccccc54)nc23)c1F)c1cccc(Cl)c1Cl [Example 64] | > 50 | 1 to 10 | < 500 | −4 | –
